From ChEMBL document CHEMBL5291721, “A preclinical secondary pharmacology resource illuminates target-adverse drug reaction associations of marketed drugs” (Nat Commun, 2023)

Tests used:
[1] = target: T1, Alpha-1A adrenergic receptor (Homo sapiens, UniProt P35348); format: functional, cell-based
T1 sequence (P35348 whole entry): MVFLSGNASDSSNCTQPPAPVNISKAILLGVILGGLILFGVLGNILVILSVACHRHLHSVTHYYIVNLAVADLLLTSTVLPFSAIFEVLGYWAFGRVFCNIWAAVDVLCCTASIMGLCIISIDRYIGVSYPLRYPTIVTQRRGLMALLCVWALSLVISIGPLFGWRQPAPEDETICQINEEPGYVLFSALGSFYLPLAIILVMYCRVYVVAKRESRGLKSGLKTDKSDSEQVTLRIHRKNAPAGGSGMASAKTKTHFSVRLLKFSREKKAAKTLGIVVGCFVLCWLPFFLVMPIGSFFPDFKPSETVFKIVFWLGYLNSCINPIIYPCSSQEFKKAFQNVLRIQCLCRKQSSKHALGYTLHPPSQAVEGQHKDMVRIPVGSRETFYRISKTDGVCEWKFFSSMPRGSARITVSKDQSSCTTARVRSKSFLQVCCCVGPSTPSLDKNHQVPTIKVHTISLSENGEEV

Mu-type opioid receptor = Mu-type opioid receptor (Homo sapiens, UniProt P35372)
[2] = target: cGMP-inhibited 3',5'-cyclic phosphodiesterase 3A (Homo sapiens, UniProt Q14432); format: functional
[3] = target: 5-hydroxytryptamine receptor 2B (Homo sapiens, UniProt P41595); format: functional, cell-based
Adenosine receptor A3 = target: T2, Adenosine receptor A3 (Homo sapiens, UniProt P0DMS8)
T2 sequence (P0DMS8 whole entry): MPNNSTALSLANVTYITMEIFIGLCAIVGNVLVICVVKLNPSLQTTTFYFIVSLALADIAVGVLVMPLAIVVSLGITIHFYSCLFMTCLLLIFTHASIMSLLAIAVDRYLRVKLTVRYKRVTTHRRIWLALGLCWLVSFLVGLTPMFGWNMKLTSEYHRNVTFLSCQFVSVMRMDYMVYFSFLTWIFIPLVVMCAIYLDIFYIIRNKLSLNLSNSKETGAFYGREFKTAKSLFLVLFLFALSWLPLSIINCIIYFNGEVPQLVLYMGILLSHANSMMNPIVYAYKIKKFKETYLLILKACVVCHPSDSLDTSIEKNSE

Acetylcholinesterase = Acetylcholinesterase (Homo sapiens, UniProt P22303); format: functional
[4] = target: Prostaglandin G/H synthase 1 (Homo sapiens, UniProt P23219); format: functional
[5] = target: Sodium-dependent dopamine transporter (Homo sapiens, UniProt Q01959)
Prothrombin = Prothrombin (Homo sapiens, UniProt P00734); format: functional
[6] = target: T3, 5-hydroxytryptamine receptor 1A (Homo sapiens, UniProt P08908)
T3 sequence (P08908 whole entry): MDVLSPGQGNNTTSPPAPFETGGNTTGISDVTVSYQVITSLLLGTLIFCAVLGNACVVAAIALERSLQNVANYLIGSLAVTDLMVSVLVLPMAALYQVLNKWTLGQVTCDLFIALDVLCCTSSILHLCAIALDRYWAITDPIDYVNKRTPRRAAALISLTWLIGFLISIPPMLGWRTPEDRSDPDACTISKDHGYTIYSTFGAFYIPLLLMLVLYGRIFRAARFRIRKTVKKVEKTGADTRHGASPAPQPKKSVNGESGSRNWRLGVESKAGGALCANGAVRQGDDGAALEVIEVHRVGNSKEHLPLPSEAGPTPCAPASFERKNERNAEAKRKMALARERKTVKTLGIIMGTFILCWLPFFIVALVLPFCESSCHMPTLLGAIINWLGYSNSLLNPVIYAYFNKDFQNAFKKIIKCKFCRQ

[7] = target: Voltage-gated inwardly rectifying potassium channel KCNH2 (Homo sapiens, UniProt Q12809); format: functional; conditions: read-out: AC50
[8] = target: T4, Amine oxidase [flavin-containing] A (Homo sapiens, UniProt P21397); format: functional
T4 sequence (P21397 whole entry): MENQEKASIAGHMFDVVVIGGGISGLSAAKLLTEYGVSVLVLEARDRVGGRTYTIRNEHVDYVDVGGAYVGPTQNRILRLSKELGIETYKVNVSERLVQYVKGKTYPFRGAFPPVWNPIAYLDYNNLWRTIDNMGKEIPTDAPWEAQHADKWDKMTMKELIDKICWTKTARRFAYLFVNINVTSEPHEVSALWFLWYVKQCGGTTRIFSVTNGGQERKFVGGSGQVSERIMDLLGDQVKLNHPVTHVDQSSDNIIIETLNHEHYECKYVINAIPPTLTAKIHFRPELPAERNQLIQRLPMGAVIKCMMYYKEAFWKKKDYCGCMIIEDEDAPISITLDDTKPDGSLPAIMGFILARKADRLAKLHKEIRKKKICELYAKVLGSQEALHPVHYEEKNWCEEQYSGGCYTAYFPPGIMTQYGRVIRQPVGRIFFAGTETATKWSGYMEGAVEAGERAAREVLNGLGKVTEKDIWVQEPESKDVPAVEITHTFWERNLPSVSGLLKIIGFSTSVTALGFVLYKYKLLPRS

Thromboxane A2 receptor = target: T5, Thromboxane A2 receptor (Homo sapiens, UniProt P21731); format: functional, cell-based
T5 sequence (P21731 whole entry): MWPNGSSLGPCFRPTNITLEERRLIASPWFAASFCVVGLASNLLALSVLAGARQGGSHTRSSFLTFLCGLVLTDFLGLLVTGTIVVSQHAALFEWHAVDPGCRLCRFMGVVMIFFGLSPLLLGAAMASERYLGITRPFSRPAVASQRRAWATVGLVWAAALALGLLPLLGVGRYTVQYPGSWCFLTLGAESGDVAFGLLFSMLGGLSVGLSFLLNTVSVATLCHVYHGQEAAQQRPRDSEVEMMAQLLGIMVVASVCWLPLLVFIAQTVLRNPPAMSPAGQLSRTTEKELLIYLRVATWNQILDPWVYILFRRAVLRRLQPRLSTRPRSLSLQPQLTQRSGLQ

D(3) dopamine receptor = D(3) dopamine receptor (Homo sapiens, UniProt P35462)
Note: assay procedure not described here.

cGMP-inhibited 3',5'-cyclic phosphodiesterase 3A, sequence (Q14432 whole entry): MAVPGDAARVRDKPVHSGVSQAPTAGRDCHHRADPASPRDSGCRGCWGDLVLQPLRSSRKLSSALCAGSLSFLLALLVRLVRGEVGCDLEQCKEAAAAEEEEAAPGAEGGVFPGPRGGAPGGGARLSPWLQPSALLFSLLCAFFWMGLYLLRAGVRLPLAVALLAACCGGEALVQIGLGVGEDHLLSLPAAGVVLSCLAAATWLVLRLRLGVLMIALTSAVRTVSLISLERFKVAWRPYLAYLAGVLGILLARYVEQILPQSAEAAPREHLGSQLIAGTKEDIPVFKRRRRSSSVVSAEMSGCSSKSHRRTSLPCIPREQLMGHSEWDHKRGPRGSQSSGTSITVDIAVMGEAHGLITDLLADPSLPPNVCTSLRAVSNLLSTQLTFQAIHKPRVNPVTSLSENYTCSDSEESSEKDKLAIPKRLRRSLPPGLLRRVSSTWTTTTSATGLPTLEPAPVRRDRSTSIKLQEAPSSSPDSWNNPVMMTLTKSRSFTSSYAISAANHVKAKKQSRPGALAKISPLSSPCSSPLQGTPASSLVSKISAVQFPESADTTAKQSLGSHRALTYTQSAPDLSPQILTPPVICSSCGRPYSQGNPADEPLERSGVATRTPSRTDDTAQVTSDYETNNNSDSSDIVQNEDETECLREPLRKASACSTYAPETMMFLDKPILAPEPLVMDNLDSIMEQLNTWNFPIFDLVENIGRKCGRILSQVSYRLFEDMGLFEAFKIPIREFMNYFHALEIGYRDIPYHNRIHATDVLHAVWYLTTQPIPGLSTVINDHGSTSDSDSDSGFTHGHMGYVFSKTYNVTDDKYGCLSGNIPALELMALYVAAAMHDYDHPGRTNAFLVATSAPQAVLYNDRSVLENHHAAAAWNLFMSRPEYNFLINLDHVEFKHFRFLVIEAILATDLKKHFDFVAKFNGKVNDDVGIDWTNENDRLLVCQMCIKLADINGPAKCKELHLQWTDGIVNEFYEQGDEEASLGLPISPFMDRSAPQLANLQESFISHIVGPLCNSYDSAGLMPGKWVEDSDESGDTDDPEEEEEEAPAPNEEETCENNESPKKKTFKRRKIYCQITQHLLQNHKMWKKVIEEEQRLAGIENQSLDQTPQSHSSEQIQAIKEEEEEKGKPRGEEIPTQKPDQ
5-hydroxytryptamine receptor 2B, sequence (P41595 whole entry): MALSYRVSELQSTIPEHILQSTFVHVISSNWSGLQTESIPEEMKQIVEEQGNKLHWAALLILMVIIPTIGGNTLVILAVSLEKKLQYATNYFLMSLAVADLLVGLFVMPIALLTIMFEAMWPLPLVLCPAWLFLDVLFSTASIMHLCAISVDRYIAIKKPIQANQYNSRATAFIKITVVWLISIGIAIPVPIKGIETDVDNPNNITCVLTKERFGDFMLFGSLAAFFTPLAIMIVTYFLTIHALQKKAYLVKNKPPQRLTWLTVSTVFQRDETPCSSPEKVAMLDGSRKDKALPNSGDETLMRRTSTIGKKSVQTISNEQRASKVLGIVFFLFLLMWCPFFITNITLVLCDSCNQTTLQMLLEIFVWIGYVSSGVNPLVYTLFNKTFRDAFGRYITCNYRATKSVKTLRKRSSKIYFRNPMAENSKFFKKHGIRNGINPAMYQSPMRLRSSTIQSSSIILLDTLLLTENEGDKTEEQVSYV
Acetylcholinesterase, sequence (P22303 whole entry): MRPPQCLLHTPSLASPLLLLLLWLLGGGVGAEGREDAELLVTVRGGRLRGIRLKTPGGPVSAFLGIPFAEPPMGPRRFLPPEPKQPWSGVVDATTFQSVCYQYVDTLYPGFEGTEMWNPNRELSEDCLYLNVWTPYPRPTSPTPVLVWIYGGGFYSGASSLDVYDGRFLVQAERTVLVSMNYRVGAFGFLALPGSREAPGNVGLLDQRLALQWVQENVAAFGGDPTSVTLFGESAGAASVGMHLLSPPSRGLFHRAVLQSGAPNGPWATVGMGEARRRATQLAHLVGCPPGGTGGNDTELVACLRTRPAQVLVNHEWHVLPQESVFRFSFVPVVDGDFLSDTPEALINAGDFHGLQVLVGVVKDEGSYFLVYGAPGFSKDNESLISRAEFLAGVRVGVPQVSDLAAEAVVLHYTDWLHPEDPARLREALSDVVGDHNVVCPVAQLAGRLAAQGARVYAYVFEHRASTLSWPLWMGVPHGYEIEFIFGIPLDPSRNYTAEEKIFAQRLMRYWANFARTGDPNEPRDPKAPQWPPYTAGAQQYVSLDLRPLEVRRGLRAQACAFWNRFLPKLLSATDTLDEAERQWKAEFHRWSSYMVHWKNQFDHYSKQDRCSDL
Voltage-gated inwardly rectifying potassium channel KCNH2, sequence (Q12809 whole entry): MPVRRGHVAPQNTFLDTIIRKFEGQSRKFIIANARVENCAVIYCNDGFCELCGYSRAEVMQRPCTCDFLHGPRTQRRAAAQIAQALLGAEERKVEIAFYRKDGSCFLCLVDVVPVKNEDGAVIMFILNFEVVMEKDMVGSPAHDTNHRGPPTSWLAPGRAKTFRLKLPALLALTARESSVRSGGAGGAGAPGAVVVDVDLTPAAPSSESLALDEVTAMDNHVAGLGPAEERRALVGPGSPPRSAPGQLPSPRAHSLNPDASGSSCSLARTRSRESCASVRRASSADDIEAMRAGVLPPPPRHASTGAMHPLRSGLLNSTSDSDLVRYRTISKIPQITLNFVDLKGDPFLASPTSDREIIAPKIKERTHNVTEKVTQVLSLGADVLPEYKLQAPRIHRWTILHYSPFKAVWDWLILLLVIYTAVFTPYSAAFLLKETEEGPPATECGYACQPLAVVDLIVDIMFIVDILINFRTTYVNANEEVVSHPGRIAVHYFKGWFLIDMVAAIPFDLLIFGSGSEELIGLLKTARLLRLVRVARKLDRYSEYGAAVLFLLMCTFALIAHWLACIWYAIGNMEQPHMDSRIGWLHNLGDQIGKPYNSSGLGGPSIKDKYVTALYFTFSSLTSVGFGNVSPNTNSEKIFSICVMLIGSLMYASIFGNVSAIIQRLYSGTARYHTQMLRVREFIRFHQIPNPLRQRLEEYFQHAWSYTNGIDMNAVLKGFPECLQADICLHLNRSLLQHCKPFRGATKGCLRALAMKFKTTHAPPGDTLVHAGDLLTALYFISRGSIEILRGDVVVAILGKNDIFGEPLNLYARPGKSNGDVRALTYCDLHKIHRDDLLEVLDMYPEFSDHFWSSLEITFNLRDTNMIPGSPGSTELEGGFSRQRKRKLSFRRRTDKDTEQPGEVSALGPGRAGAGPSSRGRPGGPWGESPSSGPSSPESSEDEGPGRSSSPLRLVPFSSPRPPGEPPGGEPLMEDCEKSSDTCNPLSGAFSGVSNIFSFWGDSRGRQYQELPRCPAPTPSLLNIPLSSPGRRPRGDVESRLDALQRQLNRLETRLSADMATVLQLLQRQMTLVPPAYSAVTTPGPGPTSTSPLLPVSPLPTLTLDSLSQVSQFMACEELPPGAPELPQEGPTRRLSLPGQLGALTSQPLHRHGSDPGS
Mu-type opioid receptor, sequence (P35372 whole entry): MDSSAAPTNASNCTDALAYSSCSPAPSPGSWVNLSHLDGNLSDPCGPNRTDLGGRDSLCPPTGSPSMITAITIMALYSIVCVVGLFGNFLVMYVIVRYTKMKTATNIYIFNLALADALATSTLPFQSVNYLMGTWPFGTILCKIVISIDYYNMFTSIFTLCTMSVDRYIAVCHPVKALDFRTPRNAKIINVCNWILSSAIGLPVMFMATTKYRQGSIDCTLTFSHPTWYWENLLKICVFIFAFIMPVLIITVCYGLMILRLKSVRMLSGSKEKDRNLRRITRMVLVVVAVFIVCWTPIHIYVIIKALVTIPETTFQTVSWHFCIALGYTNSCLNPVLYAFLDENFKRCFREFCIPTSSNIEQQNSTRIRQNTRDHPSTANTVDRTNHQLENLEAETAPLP
Prostaglandin G/H synthase 1, sequence (P23219 whole entry): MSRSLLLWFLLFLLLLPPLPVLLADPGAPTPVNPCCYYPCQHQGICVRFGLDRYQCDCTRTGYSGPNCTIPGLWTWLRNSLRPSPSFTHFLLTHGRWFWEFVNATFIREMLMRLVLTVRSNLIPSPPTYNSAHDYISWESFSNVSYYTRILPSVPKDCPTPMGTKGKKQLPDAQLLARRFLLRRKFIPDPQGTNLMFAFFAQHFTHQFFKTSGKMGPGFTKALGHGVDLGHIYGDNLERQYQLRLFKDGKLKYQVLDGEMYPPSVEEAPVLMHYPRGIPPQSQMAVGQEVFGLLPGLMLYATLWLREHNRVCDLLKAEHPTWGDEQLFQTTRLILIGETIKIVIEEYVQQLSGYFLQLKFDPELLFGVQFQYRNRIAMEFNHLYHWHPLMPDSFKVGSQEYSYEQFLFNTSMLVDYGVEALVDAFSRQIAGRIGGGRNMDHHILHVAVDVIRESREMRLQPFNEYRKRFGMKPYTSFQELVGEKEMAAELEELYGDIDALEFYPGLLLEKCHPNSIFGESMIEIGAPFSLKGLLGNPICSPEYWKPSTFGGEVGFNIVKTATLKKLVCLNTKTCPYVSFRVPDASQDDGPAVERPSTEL
D(3) dopamine receptor, sequence (P35462 whole entry): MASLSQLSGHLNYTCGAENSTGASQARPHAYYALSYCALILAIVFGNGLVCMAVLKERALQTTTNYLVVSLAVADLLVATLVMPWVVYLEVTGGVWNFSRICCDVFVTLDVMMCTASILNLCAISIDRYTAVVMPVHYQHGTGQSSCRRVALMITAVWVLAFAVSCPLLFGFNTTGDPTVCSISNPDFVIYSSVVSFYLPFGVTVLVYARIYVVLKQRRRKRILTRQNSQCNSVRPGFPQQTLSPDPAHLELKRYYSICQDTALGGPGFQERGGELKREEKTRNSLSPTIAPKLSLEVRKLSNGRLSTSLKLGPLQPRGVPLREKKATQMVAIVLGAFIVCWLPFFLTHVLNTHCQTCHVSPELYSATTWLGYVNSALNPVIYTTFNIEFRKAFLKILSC

| Compound | AC50 [1] [µM] | AC50 (Mu-type opioid receptor) [µM] | AC50 [2] [µM] | AC50 [3] [µM] | AC50 (Adenosine receptor A3) [µM] | AC50 (Acetylcholinesterase) [µM] | AC50 [4] [µM] | AC50 [5] [µM] | AC50 (Prothrombin) [µM] | AC50 [6] [µM] | AC50 [7] [µM] | AC50 [8] [µM] | AC50 (Thromboxane A2 receptor) [µM] | AC50 (D(3) dopamine receptor) [µM] |
| --- | --- | --- | --- | --- | --- | --- | --- | --- | --- | --- | --- | --- | --- | --- |
| COc1cccc2c1C(=O)c1c(O)c3c(c(O)c1C2=O)C[C@@](O)(C(=O)CO)C[C@@H]3O[C@H]1C[C@H](N)[C@H](O)[C@H](C)O1 [DOXORUBICIN] | > 30 | > 30 | > 30 | > 30 | > 30 | > 30 | > 30 | > 30 | > 30 | > 30 | 5.63 | > 30 | 24.7 | > 30 |
| COC(=O)Nc1nc2cc(C(=O)c3ccc(F)cc3)ccc2[nH]1 [FLUBENDAZOLE] | > 30 | > 30 | > 30 | > 30 | 8.69 | > 30 | 2.17 | > 30 | > 30 | > 30 | > 30 | > 30 | > 30 | > 30 |
| Cc1ccc(Cl)c(Nc2ccccc2C(=O)O)c1Cl [MECLOFENAMIC ACID] | > 30 | > 30 | > 30 | > 30 | 29.6 | > 30 | 0.0142 | > 30 | > 30 | > 30 | > 30 | > 30 | > 30 | > 30 |
| Oc1ccc(OCc2ccccc2)cc1 [MONOBENZONE] | > 30 | > 30 | > 30 | > 30 | > 30 | > 30 | 11 | 8.56 | > 30 | > 30 | > 30 | > 30 | > 30 | > 30 |
| C#C[C@]1(OC(C)=O)CC[C@H]2[C@@H]3CCC4=CC(=O)CC[C@@H]4[C@H]3CC[C@@]21C [NORETHINDRONE ACETATE] | 5.91 | > 30 | > 30 | > 30 | 0.838 | > 30 | > 30 | > 30 | > 30 | > 30 | > 30 | > 30 | > 30 | > 30 |
| C[C@@H]1O[C@@H](O[C@H]2C[C@@H](O)[C@]3(CO)[C@H]4[C@H](O)C[C@]5(C)[C@@H](C6=CC(=O)OC6)CC[C@]5(O)[C@@H]4CC[C@]3(O)C2)[C@H](O)[C@H](O)[C@H]1O [OUABAIN] | > 30 | > 30 | > 30 | > 30 | > 30 | > 30 | > 30 | > 30 | > 30 | > 30 | > 30 | > 30 | > 30 | > 30 |
| CO[C@H]1/C=C/O[C@@]2(C)Oc3c(C)c(O)c4c(c3C2=O)C2=NC3(CCN(CC(C)C)CC3)NC2=C(NC(=O)/C(C)=C\C=C\[C@H](C)[C@H](O)[C@@H](C)[C@@H](O)[C@@H](C)[C@H](OC(C)=O)[C@@H]1C)C4=O [RIFABUTIN] | > 30 | > 30 | > 30 | > 30 | > 30 | > 30 | 17.7 | > 30 | > 30 | > 30 | > 30 | > 30 | > 30 | > 30 |
| C[C@@H]1CN(c2c(F)c(N)c3c(=O)c(C(=O)O)cn(C4CC4)c3c2F)C[C@H](C)N1 [SPARFLOXACIN] | > 30 | > 30 | > 30 | > 30 | > 30 | > 30 | > 30 | > 30 | > 30 | > 30 | 6.8 | > 30 | > 30 | > 30 |
